Series [1] can be described thus: Metabolic stability in pooled human liver microsomes. Set-up: CLint scaled: dose or concentration left out as unconfirmed. To be noted: for CLint scaled / half-life at 0.4 mM: human. On the procedure: (§1) (ii) Metabolic stability in liver microsomes. The metabolic stability assay was performed in duplicate using 96-deepwell plates. Each compound (0.4 mM) was incubated individually in mouse, rat, and pooled human liver microsomes (0.4 mg/ml) at 37°C in the presence and absence of the cofactor NADPH (1 mM). An aliquot was taken at 0, 5, 10, 30, and 60 min, and the reaction was quenched by adding 300 μl of ice-cold acetonitrile containing the internal standard carbamazepine (0.0236 μg/ml) ([88]). The test compounds in the supernatant were analyzed by means of LC-MS/MS as described in “Sample analysis” below. The normalized data for each sample were used to calculate the in vitro half-life, intrinsic clearance rate, and hepatic extraction ratio from the results of this assay using the following equations ([88]).Equation 1. Normalized area. (1) Normalized area=(Peak area of sample at time point/Peak area of internal standard) Equation 2. Percent parent remaining. (2) % Parent=Normalized peak area of sample at time point/Normalized peak area of sample at t=0×100 Equation 3. Calculated t1/2. (3) t1/2=−0.693/λ where λ is the slope of the ln (% parent remaining) versus time curve of the compound.Equation 4. CLint. (4) CLint=[0.693/t1/2(min)]×[Volume of incubation (μl)/Microsomal protein (μg)] Equation 5. Hepatic extraction ratio. (5) EH=fu×CLint/QH + fu×CLint
(§2) Sample extraction. […] The organic layer was then transferred and evaporated under a gentle stream of nitrogen at room temperature for 30 min. The dried samples were reconstituted in mobile phase, and a 5 μl sample was injected for LC-MS/MS analysis. The only exception was the arylurea 10, for which no liquid-liquid extraction was conducted; instead, the 200 μl acetonitrile solution was evaporated under a gentle stream of nitrogen at room temperature. The dried sample was reconstituted in the mobile phase, and a 5 μl sample was injected for LC-MS/MS analysis. The plasma samples for each compound from the in vivo studies were extracted by mixing 350 μl ethyl acetate with 15 μl of plasma sample and 35 μl of universal buffer containing internal standard at pH 8. The samples were vortexed for 1 min and centrifuged for 5 min, and the organic layer was then transferred and evaporated under a gentle stream of nitrogen at room temperature for 30 min. The dried samples were each reconstituted in the mobile phase, and a 5 μl sample was injected for LC-MS/MS analysis.
(§3) LC-MS/MS analysis. For all the artemisinins except the arylurea 10, gradient chromatography was performed on a Phenomenex (Torrance, CA, USA) Luna PFP(2) analytical column (100 Å, 5 μm, 2 by 50 mm) and an AB Sciex API 5500 mass spectrometer which was operated at unit resolution in the multiple reaction monitoring (MRM) mode. The HPLC method used was a gradient method with 5 mM ammonium acetate and 0.1% acetic acid in water as the aqueous phase and a mixture of acetonitrile and methanol (1:1 vol/vol) containing 5% of the aqueous phase as the organic phase ([89]). The arylurea 10 was analyzed using a Phenomenex Gemini NX-C18 (5 μm, 2.1 mm by 50 mm) column with an AB Sciex 3200 QTRAP mass spectrometer operated at unit resolution in the MRM mode. The HPLC method used was a gradient method with 5 mM ammonium acetate and 0.1% acetic acid in water as the aqueous phase and a mixture of acetonitrile and methanol (1:1 vol/vol). The transitions of the molecular ions were monitored, as listed in Table S8 in the supporting information. The calibration range was between 0.002 μg/ml and 6.250 μg/ml. Data acquisition and evaluation were performed using Analyst 1.6.2 software (Applied Biosystems, Foster City, CA, USA). The formation of the putative metabolite DHA from the amino-artemisinins and the metabolite M1 of artemisone were evaluated in these mice PK studies; the MRM transitions of DHA and M1 (Table S8) were thus included in the LC-MS/MS assays.
On the technique in general: Microsomes from liver hold many membrane-bound enzymes, among them those of drug oxidation.

Series [2] deals with early stage (>90% stage I-III) P. falciparum NF54 gametocytes. To be noted: cited from earlier work.
Series [3] in a line: Metabolic stability in mouse liver microsomes. The series is classed as in vitro ADME. More on the design: half-life / CLint scaled: dose or concentration left out as unconfirmed. The conditions noted are these: for CLint scaled: calculated, read-out: Intrinsic liver clearance rate CLint Mouse; for half-life: read-out: Microsomal half-life t1/2 Mouse. On the procedure:
as §1, §2, §3

The mark [4] stands for this setting: Table S3, ± SEM, ref 1 and 2 (supplement; main text 47, 48), read-out: Early Stage (EG, Luc 48 h) IC50.
[5] abbreviates: Table S4, ± SEM, n = 3, ref 4 (supplement; main text 62), read-out: Early stage IC50 (Luciferase 48 h).

Where two headings read alike, the source gives them in different places.

By IC50 is commonly meant the concentration needed to halve the response being measured. As to `C[C@H]1[C@@H](O)O[C@@H]2O[C@@]3(C)CC[C@H]4[C@H](C)CC[C@@H]1[C@@]24OO3` [DHA 2, dihydroartemisinin], in series [1] (human liver microsomes), the “Hepatic extraction ratio EH Human” value is given as 0.7. In series [1] (pooled liver microsomes), this molecule had a CLint scaled of 41.5 mL/min/kg and a half-life at 0.4 mM of 51.7 min. Besides, the IC50 in series [2] (setting [4]) was 43 ± 3.9 nM. Further, in series [3], the “Hepatic extraction ratio EH Mouse” value is 0.4, the CLint scaled is 50.2 mL/min/kg and the half-life turned out to be 136 min.

Take `C[C@H]1[C@H](N2CCS(=O)(=O)CC2)O[C@@H]2O[C@@]3(C)CC[C@H]4[C@H](C)CC[C@@H]1[C@@]24OO3` [Artemisone 6, artemisone]: the “Hepatic extraction ratio EH Human” value in series [1] (human liver microsomes) is given as 0.9. In series [1] (pooled liver microsomes), this molecule gave a CLint scaled of 243 mL/min/kg and a half-life at 0.4 mM of under 10 min. Further, the IC50 in series [2] (setting [4]) was 1.94 nM. In addition, in series [3], the “Hepatic extraction ratio EH Mouse” value is listed as 0.9, the CLint scaled was 805 mL/min/kg and the half-life is under 10 min.

Take `CO[C@H]1O[C@@H]2O[C@@]3(C)CC[C@H]4[C@H](C)CC[C@@H]([C@H]1C)[C@@]24OO3` [Artemether 3, artemether]: the “Hepatic extraction ratio EH Human” value in series [1] (human liver microsomes) turned out to be 0.9. Further, the half-life at 0.4 mM in series [1] (microsomes) amounted to 12.5 min. In series [1] (pooled liver microsomes), this molecule displayed a CLint scaled of 172 mL/min/kg. Besides, in series [2] (setting [5]), the IC50 is 37.7 ± 2.08 nM. In addition, in series [3], the “Hepatic extraction ratio EH Mouse” value was found to be 0.8, the CLint scaled is 393 mL/min/kg and the half-life is 17.4 min.

For `C[C@H]1[C@H](N2CCSCC2)O[C@@H]2O[C@@]3(C)CC[C@H]4[C@H](C)CC[C@@H]1[C@@]24OO3` [Artemiside 5, artemiside], the “Hepatic extraction ratio EH Human” value in series [1] (human liver microsomes) was 1.0. In series [1] (pooled liver microsomes), this molecule showed a CLint scaled of 451 mL/min/kg and a half-life at 0.4 mM of under 10 min. Also, in series [2] (setting [4]), the IC50 is 16.4 ± 1 nM. Also, in series [3], the “Hepatic extraction ratio EH Mouse” value is given as 0.9, the CLint scaled was 551 mL/min/kg and the half-life worked out at 12.4 min.

Molecule `C[C@H]1[C@H](N2C=CS(=O)(=O)CC2)O[C@@H]2O[C@@]3(C)CC[C@H]4[C@H](C)CC[C@@H]1[C@@]24OO3` [M1 12] came in with a half-life at 0.4 mM in series [1] (pooled liver microsomes) of over 150 min. In series [3], the “Hepatic extraction ratio EH Mouse” value was found to be 0.3, the CLint scaled was 37.4 mL/min/kg and the half-life is over 150 min.

As to `C[C@H]1[C@H](NS(N)(=O)=O)O[C@@H]2O[C@@]3(C)CC[C@H]4[C@H](C)CC[C@@H]1[C@@]24OO3` [Sulfamide 7], the “Hepatic extraction ratio EH Human” value in series [1] (human liver microsomes) is reported as 0.2. In series [1] (pooled liver microsomes), the CLint scaled is 5.6 mL/min/kg and the half-life at 0.4 mM is over 150 min. Further, the IC50 in series [2] (setting [4]) is 15 ± 2 nM. Also, in series [3], the “Hepatic extraction ratio EH Mouse” value is recorded as 0.3, the CLint scaled is 41.3 mL/min/kg and the half-life was over 150 min.

Take `C[C@@H]1CC[C@H]2[C@@H](C)C(=O)N[C@@H]3O[C@@]4(C)CC[C@@H]1[C@]32OO4` [11-Aza-artemisinin 11, 11-aza-artemisinin]: the “Stability in HLM” value in series [1] (human liver microsomes) was “stable throughout the experiment”. The half-life at 0.4 mM in series [1] (pooled liver microsomes) was 60 min. Besides, the IC50 in series [2] (setting [5]) was 170 nM. Moreover, in series [3], the “Hepatic extraction ratio EH Mouse” value turned out to be 0.3, the CLint scaled was 36.4 mL/min/kg and the half-life was over 150 min.

For the molecule `C[C@H]1[C@H](N2CCN(C(=O)Nc3ccc(F)cc3)CC2)O[C@@H]2O[C@@]3(C)CC[C@H]4[C@H](C)CC[C@@H]1[C@@]24OO3` [Arylurea 10], the “Hepatic extraction ratio EH Human” value in series [1] (human liver microsomes) came out at 0.6. In series [1] (pooled liver microsomes), this molecule came in with a CLint scaled of 531 mL/min/kg and a half-life at 0.4 mM of under 10 min. Further, the IC50 in series [2] (setting [4]) was 36 ± 10.2 nM. For the same molecule, in series [3], the “Hepatic extraction ratio EH Mouse” value worked out at 0.6, the CLint scaled was 2480 mL/min/kg and the half-life is under 10 min.

The values are drawn from PMC8284440, “Toward New Transmission-Blocking Combination Therapies: Pharmacokinetics of 10-Amino-Artemisinins and 11-Aza-Artemisinin and Comparison with Dihydroartemisinin and Artemether” (Antimicrobial Agents and Chemotherapy, 2021).
